Drawing on patent US6818663B2, “Diaminothiazoles” (Hoffmann-La Roches, priority 2002, dated 2004), this text covers IC50 for 21 compounds.

A word on the IC50: it is the midpoint of a concentration-inhibition curve.

Holding throughout (format): biochemical
One experiment concerns the target human cyclin B-CDK1 (Homo sapiens, UniProt P06493). The experiment is described as follows: FlashPlate kinase assay, cyclin B-CDK1, Rb substrate. As to conditions: recombinant cyclin B-CDK1, Rb phosphorylation, 1 μM ATP. As to the method: (§1) To determine inhibition of Cdk4, Cdk2 and Cdk1 activity, kinase assays were conducted using FlashPlate™ assays (NEN™-Life Science Products). FlashPlate assays were performed using recombinant human cyclin B-CDK1, human cyclin E-CDK2 or human cyclin D1-CDK4 complexes. GST-cyclinE (GST-cycE), CDK2, GST-cyclinB (GST-cycB), CDK1, GST-CDK4 and cyclin D1 (cycD1) cDNA clones in baculovirus vectors were provided by Dr. W. Harper at the Baylor College of Medicine, Houston, Tex. Proteins were co-expressed in High Five™ insect cells and the complex was purified on glutathione Sepharose resin (Pharmacia, Piscataway, N.J.) as previously described (Harper, J. W. et al. Cell 1993, 75, 805-816). A 6×-Histidine tagged truncated form of retinoblastoma (Rb) protein (amino acid 386-928) was used as the substrate for the cycD1-CDK4, cycB-CDK1 and the cycE-CDK2 assays (the expression plasmid was provided by Dr. Veronica Sullivan, Department of Molecular Virology, Roche Research Centre, Welwyn Garden City, United Kingdom). The Rb protein is a natural substrate for phosphorylation by CDK4, CDK2 and CDK1 (see Herwig and Strauss Eur. J. Biochem. Vol. 246 (1997) pp. 581-601 and the references cited therein).
(§2) The expression of the 62 Kd protein was under the control of an IPTG inducible promoter in an M15 E. coli strain. Cells were lysed by sonication and purification was carried out by binding lysates at pH 8.0 to a Ni-chelated agarose column pretreated with 1 mM imidazole. The resin was then washed several times with incrementally decreasing pH buffers to pH 6.0, and eluted with 500 mM imidazole. Eluted protein was dialysed against 20 mM HEPES pH 7.5, 30% glycerol, 200 mM NaCl, and 1 mM DTT. Purified Rb fusion protein stocks were quantitated for protein concentration, aliquoted, and stored at −70° C.
(§3) For all three kinase assays reported herein, 96-well FlashPlates were coated with Rb protein at 10 μg/ml, using 100 μl per well. Plates were incubated at 4° C. overnight or at room temperature for 3 hours on a shaker. To control for nonspecific phosphorylation, one row of wells was coated with 100 μl/well coating buffer (20 mM HEPES, 0.2 M NaCl). Plates were then washed twice with wash buffer (0.01% Tween 20 in phosphate-buffered saline). Compounds to be tested (“test compounds”) were added to the wells at 5×final concentration. Reactions were initiated by immediate addition of 40 μl reaction mix (25 mM HEPES, 20 mM MgCl2, 0.002% Tween 20, 2 mM DTT, 1 μM ATP, 4 nM ^33P-ATP) and a sufficient amount of enzyme to give counts that were at least 10-fold above background. Plates were incubated at room temperature on a shaker for 30 minutes. Plates were washed four times with the wash buffer, sealed, and counted on the TopCount scintillation counter (Packard Instrument Co., Downers Grove, Ill.]. The percent inhibition of Rb phosphorylation, which is a measure of the inhibition of CDK activity, was determined according to the following formula: [formula]
(§4) where “test compound” refers to the average counts per minute of the test duplicates, “nonspecific” refers to the average counts per minute when no CyclinD/Cdk4, etc., was added, and “total” refers to the average counts per minute when no compound was added. The IC50 value is the concentration of test compound that reduces by 50% the protein-kinase induced incorporation of the radiolabel under the test conditions described.

The next experiment deals with human cyclin E-CDK2 (Homo sapiens, UniProt P24941). The experiment in a line: FlashPlate kinase assay, cyclin E-CDK2, Rb substrate. Conditions: recombinant cyclin E-CDK2, Rb phosphorylation, 1 μM ATP. Here is the method:
as §1, §2, §3, §4

In a further experiment the target is human cyclin D1-CDK4 (Homo sapiens, UniProt P11802). The experiment is described as follows: FlashPlate kinase assay, cyclin D1-CDK4, Rb substrate. As to conditions: recombinant cyclin D1-CDK4, Rb phosphorylation, 1 μM ATP. Here is the method:
as §1, §2, §3, §4

Sequence of human cyclin B-CDK1 (P06493 whole entry): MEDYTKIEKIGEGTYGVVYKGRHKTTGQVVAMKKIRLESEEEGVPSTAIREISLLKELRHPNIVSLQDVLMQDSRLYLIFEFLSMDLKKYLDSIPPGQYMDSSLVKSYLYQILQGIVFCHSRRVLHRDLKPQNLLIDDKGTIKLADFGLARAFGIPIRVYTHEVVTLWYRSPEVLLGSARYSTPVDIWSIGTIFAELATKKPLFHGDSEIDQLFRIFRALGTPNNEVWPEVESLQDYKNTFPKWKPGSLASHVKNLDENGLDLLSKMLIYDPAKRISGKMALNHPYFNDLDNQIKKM
Sequence of human cyclin B-CDK1 (P14635 whole entry partner): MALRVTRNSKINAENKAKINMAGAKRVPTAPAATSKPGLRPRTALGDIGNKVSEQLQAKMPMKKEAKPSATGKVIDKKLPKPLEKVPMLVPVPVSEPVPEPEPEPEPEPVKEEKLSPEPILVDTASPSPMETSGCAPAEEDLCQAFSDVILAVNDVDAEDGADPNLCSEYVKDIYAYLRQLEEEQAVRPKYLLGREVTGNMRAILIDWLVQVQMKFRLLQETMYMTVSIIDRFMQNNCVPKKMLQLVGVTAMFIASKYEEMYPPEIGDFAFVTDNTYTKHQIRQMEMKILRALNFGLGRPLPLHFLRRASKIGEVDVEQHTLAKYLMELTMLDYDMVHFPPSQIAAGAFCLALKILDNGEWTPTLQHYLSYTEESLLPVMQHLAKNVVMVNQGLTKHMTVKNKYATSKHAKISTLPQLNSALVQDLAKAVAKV
Sequence of human cyclin D1-CDK4 (P11802 whole entry): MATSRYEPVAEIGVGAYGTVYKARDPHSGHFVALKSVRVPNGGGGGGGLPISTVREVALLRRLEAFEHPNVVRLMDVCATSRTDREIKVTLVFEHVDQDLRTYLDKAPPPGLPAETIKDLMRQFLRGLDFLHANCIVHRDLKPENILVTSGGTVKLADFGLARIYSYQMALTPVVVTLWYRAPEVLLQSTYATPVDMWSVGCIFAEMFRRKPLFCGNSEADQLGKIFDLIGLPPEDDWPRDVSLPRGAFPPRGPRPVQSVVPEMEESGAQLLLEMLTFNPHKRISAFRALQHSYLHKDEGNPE
Sequence of human cyclin D1-CDK4 (P24385 whole entry partner): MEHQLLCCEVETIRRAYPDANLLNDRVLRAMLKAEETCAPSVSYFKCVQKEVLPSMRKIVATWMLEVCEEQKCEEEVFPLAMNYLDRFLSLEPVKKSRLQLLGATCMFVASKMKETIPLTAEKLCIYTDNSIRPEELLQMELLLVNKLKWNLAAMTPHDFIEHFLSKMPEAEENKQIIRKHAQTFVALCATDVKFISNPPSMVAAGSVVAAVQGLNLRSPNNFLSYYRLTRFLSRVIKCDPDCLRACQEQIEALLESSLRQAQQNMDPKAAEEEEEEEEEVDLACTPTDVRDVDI

Take `Nc1nc(Nc2ccc(OC[C@@H]3CCCN3)cc2)sc1C(=O)c1cccc(F)c1` [Example 3, [4-Amino-2-[4-(pyrrolidin-2-ylmethoxy)-phenylamino]-thiazol-5-yl]-(3-fluoro-phenyl)-methanone]: the IC50 at human cyclin B-CDK1 is 440 nM; on human cyclin E-CDK2, 1170 nM; on human cyclin D1-CDK4 it was 38 nM.
For `CN(C)C(C)(C)COc1ccc(Nc2nc(N)c(C(=O)c3cccc(F)c3)s2)cc1` [Example 39, [4-Amino-2-[4-(2-dimethylamino-2-methyl-propoxy)-phenylamino]-thiazol-5-yl]-(3-fluoro-phenyl)-methanone], in that order: 613 nM, 850 nM and 92 nM.
For `Nc1nc(Nc2ccc(OC3CCCNC3)cc2)sc1C(=O)c1cccc(F)c1` (stereo not drawn) [Example 46, [4-Amino-2-[4-(piperidin-3-yloxy)-phenylamino]-thiazol-5-yl]-(3-fluoro-phenyl)-methanone], in that order: 416 nM, 1140 nM and 65 nM.
`Nc1nc(Nc2ccc(OCCN3CCOCC3)cc2)sc1C(=O)c1cccc(F)c1` [Example 47, [4-Amino-2-[4-(2-morpholin-4-yl-ethoxy)-phenylamino]-thiazol-5-yl]-(3-fluoro-phenyl)-methanone]: the results for the IC50 on human cyclin B-CDK1, on human cyclin E-CDK2 and on human cyclin D1-CDK4 were 196 nM, 1080 nM and 73 nM, respectively.
Consider `COc1ccc(C(=O)c2sc(Nc3ccc(OCCN4CCCC4)cc3)nc2N)cc1[N+](=O)[O-]` [Example 48, [4-Amino-2-[4-(2-pyrrolidin-1-yl-ethoxy)-phenylamino]-thiazol-5-yl]-(4-methoxy-3-nitro-phenyl)-methanone], for which the results for the IC50 on human cyclin B-CDK1, on human cyclin E-CDK2 and on human cyclin D1-CDK4 were 1550 nM, 3160 nM and 85 nM, respectively.
In the same order, the values of `COc1ccc(C(=O)c2sc(Nc3ccc(OCCN(C)C)cc3)nc2N)cc1[N+](=O)[O-]` [Example 49, [4-Amino-2-[4-(2-dimethylamino-ethoxy)-phenylamino]-thiazol-5-yl]-(4-methoxy-3-nitro-phenyl)-methanone] are 2390 nM, 4300 nM and 88 nM.
For the compound `Nc1nc(Nc2ccc(OCCN3CCOCC3)cc2)sc1C(=O)c1ccc2c(c1)OCCO2` [Example 55, [4-Amino-2-[4-(2-morpholin-4-yl-ethoxy)-phenylamino]-thiazol-5-yl]-(2,3-dihydro-benzo[1,4]dioxin-6-yl)-methanone], the IC50 on human cyclin B-CDK1 turned out to be 610 nM; on human cyclin E-CDK2, 3200 nM; at human cyclin D1-CDK4, 85 nM.
`Nc1nc(Nc2ccc(OCCN3CCOCC3)cc2)sc1C(=O)c1ccc2c(c1)OCO2` [Example 56, [4-Amino-2-[4-(2-morpholin-4-yl-ethoxy)-phenylamino]-thiazol-5-yl]-benzo[1,3]dioxol-5-yl-methanone]: the 50% inhibitory concentration (IC50) on human cyclin B-CDK1 was 155 nM; on human cyclin E-CDK2 it was 3020 nM; on human cyclin D1-CDK4, 29 nM.
For `CN(C)CCOc1ccc(Nc2nc(N)c(C(=O)c3ccc4c(c3)OCO4)s2)cc1` [Example 59, [4-Amino-2-[4-(2-dimethylamino-ethoxy)-phenylamino]-thiazol-5-yl]-benzo[1,3]dioxol-5-yl-methanone], the half-inhibitory concentration (IC50) at human cyclin B-CDK1 worked out at 434 nM; on human cyclin E-CDK2, 5600 nM; at human cyclin D1-CDK4, 63 nM.
`CN(C)CCOc1ccc(Nc2nc(N)c(C(=O)c3cccc(C#N)c3)s2)cc1` [Example 60, 3-[4-Amino-2-[4-(2-dimethylamino-ethoxy)-phenylamino]-thiazole-5-carbonyl]-benzonitrile]: the IC50 on human cyclin B-CDK1 was 847 nM; at human cyclin E-CDK2, 1700 nM; on human cyclin D1-CDK4 it was 79 nM.
With `Cc1ccc(C(=O)c2sc(Nc3ccc(OCCN(C)C)cc3)nc2N)cc1F` [Example 73, [4-Amino-2-[4-(2-dimethylamino-ethoxy)-phenylamino]-thiazol-5-yl]-(3-fluoro-4-methyl-phenyl)-methanone], the IC50 was 1170 nM at human cyclin B-CDK1, 5990 nM on human cyclin E-CDK2 and 101 nM at human cyclin D1-CDK4.
Take `Cc1ccc(C(=O)c2sc(Nc3ccc(OC[C@@H](C)N(C)C)cc3)nc2N)cc1F` [Example 74, (R)-[4-Amino-2-[4-(2-dimethylamino-propoxy)-phenylamino]-thiazol-5-yl]-(3-fluoro-4-methyl-phenyl)-methanone]: the IC50 on human cyclin B-CDK1 was found to be 869 nM; at human cyclin E-CDK2 it was 5130 nM; at human cyclin D1-CDK4 it was 92 nM.
For the compound `Cc1ccc(C(=O)c2sc(Nc3ccc(OCC(C)(C)N(C)C)cc3)nc2N)cc1F` [Example 75, [4-Amino-2-[4-(2-dimethylamino-2-methyl-propoxy)-phenylamino]-thiazol-5-yl]-(3-fluoro-4-methyl-phenyl)-methanone], the half-maximal inhibitory concentration (IC50) at human cyclin B-CDK1 amounted to 578 nM; on human cyclin E-CDK2 it was 4240 nM; at human cyclin D1-CDK4 it was 97 nM.
For the compound `CCN1CCCC(Oc2ccc(Nc3nc(N)c(C(=O)c4ccc(O)c(F)c4)s3)cc2)C1` (stereo not drawn) [Example 82, [4-Amino-2-[4-(1-ethyl-piperidin-3-yloxy)-phenylamino]-thiazol-5-yl]-(3-fluoro-4-hydroxy-phenyl)-methanone], the IC50 at human cyclin B-CDK1 came out at 1020 nM; at human cyclin E-CDK2 it was 1500 nM; on human cyclin D1-CDK4 it was 71 nM.
For `CCN1CCC(Oc2ccc(Nc3nc(N)c(C(=O)c4ccc(C)c(F)c4)s3)cc2)C1` (stereo not drawn) [Example 86, [4-Amino-2-[4-(1-ethyl-pyrrolidin-3-yloxy)-phenylamino]-thiazol-5-yl]-(3-fluoro-4-methyl-phenyl)-methanone], in that order: 977 nM, 1640 nM and 97 nM.
In the same order, the values of `CCN1CCCC(Oc2ccc(Nc3nc(N)c(C(=O)c4ccc(C)c(F)c4)s3)cc2)C1` (stereo not drawn) [Example 87, [4-Amino-2-[4-(1-ethyl-piperidin-3-yloxy)-phenylamino]-thiazol-5-yl]-(3-fluoro-4-methyl-phenyl)-methanone] are 451 nM, 957 nM and 74 nM.
For `CCCc1cc(C(=O)c2sc(Nc3ccc(OC4CCNC4)cc3)nc2N)ccc1O` (stereo not drawn) [Example 90, [4-Amino-2-[4-(pyrrolidin-3-yloxy)-phenylamino]-thiazol-5-yl]-(4-hydroxy-3-propyl-phenyl)-methanone; Compound With Acetic Acid], the IC50 at human cyclin B-CDK1 came out at 228 nM; at human cyclin E-CDK2 it was 130 nM; at human cyclin D1-CDK4 it was 43 nM.
On to `Cc1cccc(C(=O)c2sc(Nc3ccc(OC4CCNC4)cc3)nc2N)c1` (stereo not drawn) [Example 91, [4-Amino-2-[4-(pyrrolidin-3-yloxy)-phenylamino]-thiazol-5-yl]-m-tolyl-methanone; Compound With Acetic Acid], for which the values for the IC50 at human cyclin B-CDK1, at human cyclin E-CDK2 and at human cyclin D1-CDK4 were 471 nM, 817 nM and 67 nM, respectively.
Consider `Cc1ccc(C(=O)c2sc(Nc3ccc(OC4CCNC4)cc3)nc2N)cc1F` (stereo not drawn) [Example 94, [4-Amino-2-[4-(pyrrolidin-3-yloxy)-phenylamino]-thiazol-5-yl]-(3-fluoro-4-methyl-phenyl)-methanone; Compound With Acetic Acid], for which the values for the IC50 at human cyclin B-CDK1, on human cyclin E-CDK2 and on human cyclin D1-CDK4 were 682 nM, 2040 nM and 86 nM, respectively.
Consider `CCN(CC)CCOc1ccc(Nc2nc(N)c(C(=O)c3ccc4c(c3)C(C)CO4)s2)cc1` (stereo not drawn) [Example 139, [4-Amino-2-[4-(2-diethylamino-ethoxy)-phenylamino]-thiazol-5-yl]-(3-methyl-2,3-dihydro-benzofuran-5-yl)-methanone], for which the IC50 on human cyclin D1-CDK4 stood at 70 nM.
For the compound `CCN(CC)CCOc1ccc(Nc2nc(N)c(C(=O)c3ccc4c(c3)CCO4)s2)cc1` [Example 142, [4-Amino-2-[4-(2-diethylamino-ethoxy)-phenylamino]-thiazol-5-yl]-(2,3-dihydro-benzofuran-5-yl)-methanone], the IC50 on human cyclin B-CDK1 was found to be 6430 nM; at human cyclin D1-CDK4, 100 nM.
